# pIC50: −log10 of the molar value.
# Tested on: 171881-019-R-J1-PDC tumor spheroids, viability
# Assay: Anticancer human tumor 171881-019-R-J1-PDC patient-derived invasive breast carcinoma cell line growth inhibition [GQUAD]
# Conditions: spheroids with HUVEC and MSC; for pIC50: curve of first compound; for viability, T/C: stronger effect = lower value
# How it was run: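 Tumor cells were grown as complex spheroids with HUVEC endothelial cells and mesenchymal stem cells as stroma. G-quadruplex stabilizers were combined with targeted agents over half-log dilutions from near the clinical Cmax, or from 10 microM.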
# [1] = second compound 0.0316 µM, first compound 0.0316 µM
# [2] = second compound 0.0316 µM, first compound 0.1 µM
# [3] = second compound 0.0316 µM, first compound 0.316 µM
# [4] = second compound 0.0316 µM, first compound 1 µM
# [5] = second compound 0.0316 µM, first compound 3.16 µM
# [6] = second compound 0.0316 µM, first compound 10 µM
# [7] = second compound 0.1 µM, first compound 0.0316 µM
# [8] = second compound 0.1 µM, first compound 0.1 µM
# [9] = second compound 0.1 µM, first compound 0.316 µM
# [10] = second compound 0.1 µM, first compound 1 µM
# [11] = second compound 0.1 µM, first compound 3.16 µM
# [12] = second compound 0.1 µM, first compound 10 µM
# [13] = second compound 0.316 µM, first compound 0.0316 µM
# [14] = second compound 0.316 µM, first compound 0.1 µM
# [15] = second compound 0.316 µM, first compound 0.316 µM
# [16] = second compound 0.316 µM, first compound 1 µM
# [17] = second compound 0.316 µM, first compound 3.16 µM
# [18] = second compound 0.316 µM, first compound 10 µM
# [19] = second compound 1 µM, first compound 0.0316 µM
# [20] = second compound 1 µM, first compound 0.1 µM
# [21] = second compound 1 µM, first compound 0.316 µM
# [22] = second compound 1 µM, first compound 1 µM
# [23] = second compound 1 µM, first compound 3.16 µM
# [24] = second compound 1 µM, first compound 10 µM
# [25] = second compound 3.16 µM, first compound 0.0316 µM
# [26] = second compound 3.16 µM, first compound 0.1 µM
# [27] = second compound 3.16 µM, first compound 0.316 µM
# [28] = second compound 3.16 µM, first compound 1 µM
# [29] = second compound 3.16 µM, first compound 3.16 µM
# [30] = second compound 3.16 µM, first compound 10 µM
# [31] = second compound 10 µM, first compound 0.0316 µM
# [32] = second compound 10 µM, first compound 0.1 µM
# [33] = second compound 10 µM, first compound 0.316 µM
# [34] = second compound 10 µM, first compound 1 µM
# [35] = second compound 10 µM, first compound 3.16 µM
# [36] = second compound 10 µM, first compound 10 µM
# 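Also: spheroids exposed to compounds for 7 days.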
# 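For viability, T/C in this document: 100% = DMSO vehicle control viability.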
smiles,measurement,setting,value
CC(C)(O)C1CCC(Nc2ccc3ncc(-c4cccc(C(F)(F)F)c4)n3n2)CC1 (stereo not drawn) + Cc1[nH]c2ccc(F)cc2c1-c1nc2c3cccnc3c3ncccc3c2[nH]1,pIC50,second compound 0.0316 µM,5.74
same,pIC50,second compound 0.1 µM,5.74
same,pIC50,second compound 0.316 µM,5.86
same,pIC50,second compound 1 µM,6.21
same,pIC50,second compound 3.16 µM,> 7.50
same,pIC50,second compound 10 µM,> 7.50
same,"viability, T/C",[1],94.8%
same,"viability, T/C",[2],104%
same,"viability, T/C",[3],88.4%
same,"viability, T/C",[4],74.5%
same,"viability, T/C",[5],23.8%
same,"viability, T/C",[6],32%
same,"viability, T/C",[7],99.5%
same,"viability, T/C",[8],96.7%
same,"viability, T/C",[9],97.8%
same,"viability, T/C",[10],73.5%
same,"viability, T/C",[11],25.4%
same,"viability, T/C",[12],31.1%
same,"viability, T/C",[13],78.7%
same,"viability, T/C",[14],71.6%
same,"viability, T/C",[15],66.2%
same,"viability, T/C",[16],60%
same,"viability, T/C",[17],24%
same,"viability, T/C",[18],25.4%
same,"viability, T/C",[19],63.6%
same,"viability, T/C",[20],47.6%
same,"viability, T/C",[21],58.8%
same,"viability, T/C",[22],45.2%
same,"viability, T/C",[23],16.4%
same,"viability, T/C",[24],10.9%
same,"viability, T/C",[25],6.94%
same,"viability, T/C",[26],4.45%
same,"viability, T/C",[27],5.15%
same,"viability, T/C",[28],3.84%
same,"viability, T/C",[29],2.07%
same,"viability, T/C",[30],0.75%
same,"viability, T/C",[31],36.5%
same,"viability, T/C",[32],42%
same,"viability, T/C",[33],28.6%
same,"viability, T/C",[34],24.1%
same,"viability, T/C",[35],5.07%
same,"viability, T/C",[36],3.8%
CCCS(=O)(=O)Nc1ccc(F)c(C(=O)c2c[nH]c3ncc(-c4ccc(Cl)cc4)cc23)c1F + Cc1[nH]c2ccc(F)cc2c1-c1nc2c3cccnc3c3ncccc3c2[nH]1,pIC50,second compound 0.0316 µM,5.03
same,pIC50,second compound 0.1 µM,5.05
same,pIC50,second compound 0.316 µM,5.11
same,pIC50,second compound 1 µM,5.25
same,pIC50,second compound 3.16 µM,> 7.50
same,pIC50,second compound 10 µM,7.50
same,"viability, T/C",[1],104%
same,"viability, T/C",[2],106%
same,"viability, T/C",[3],102%
same,"viability, T/C",[4],121%
same,"viability, T/C",[5],99%
same,"viability, T/C",[6],46.7%
same,"viability, T/C",[7],105%
same,"viability, T/C",[8],106%
same,"viability, T/C",[9],105%
same,"viability, T/C",[10],107%
same,"viability, T/C",[11],110%
same,"viability, T/C",[12],43.3%
same,"viability, T/C",[13],90.2%
same,"viability, T/C",[14],77.2%
same,"viability, T/C",[15],98.2%
same,"viability, T/C",[16],93.2%
same,"viability, T/C",[17],95.8%
same,"viability, T/C",[18],38.1%
same,"viability, T/C",[19],73.7%
same,"viability, T/C",[20],60.8%
same,"viability, T/C",[21],82.4%
same,"viability, T/C",[22],80.7%
same,"viability, T/C",[23],77.4%
same,"viability, T/C",[24],25%
same,"viability, T/C",[25],7.61%
same,"viability, T/C",[26],8.32%
same,"viability, T/C",[27],6.95%
same,"viability, T/C",[28],5.17%
same,"viability, T/C",[29],12.6%
same,"viability, T/C",[30],8.93%
same,"viability, T/C",[31],46.9%
same,"viability, T/C",[32],45.5%
same,"viability, T/C",[33],44.4%
same,"viability, T/C",[34],55.2%
same,"viability, T/C",[35],51.3%
same,"viability, T/C",[36],18.5%
O=C(NO)c1cnc(N2CCN(S(=O)(=O)c3ccc4ccccc4c3)CC2)nc1 + Cc1[nH]c2ccc(F)cc2c1-c1nc2c3cccnc3c3ncccc3c2[nH]1,pIC50,second compound 0.0316 µM,6.46
same,pIC50,second compound 0.1 µM,6.39
same,pIC50,second compound 0.316 µM,6.47
same,pIC50,second compound 1 µM,6.83
same,pIC50,second compound 3.16 µM,> 7.50
same,pIC50,second compound 10 µM,> 7.50
same,"viability, T/C",[1],93.7%
same,"viability, T/C",[2],83.3%
same,"viability, T/C",[3],55%
same,"viability, T/C",[4],1.74%
same,"viability, T/C",[5],0.09%
same,"viability, T/C",[6],0.15%
same,"viability, T/C",[7],88.4%
same,"viability, T/C",[8],78.7%
same,"viability, T/C",[9],63.8%
same,"viability, T/C",[10],2.75%
same,"viability, T/C",[11],0.09%
same,"viability, T/C",[12],0.11%
same,"viability, T/C",[13],73.3%
same,"viability, T/C",[14],65.3%
same,"viability, T/C",[15],53.4%
same,"viability, T/C",[16],2.53%
same,"viability, T/C",[17],0.14%
same,"viability, T/C",[18],0.21%
same,"viability, T/C",[19],60.2%
same,"viability, T/C",[20],49.3%
same,"viability, T/C",[21],41.2%
same,"viability, T/C",[22],1.79%
same,"viability, T/C",[23],0.34%
same,"viability, T/C",[24],0.4%
same,"viability, T/C",[25],7.54%
same,"viability, T/C",[26],5.44%
same,"viability, T/C",[27],2.89%
same,"viability, T/C",[28],0.17%
same,"viability, T/C",[29],0.14%
same,"viability, T/C",[30],0.28%
same,"viability, T/C",[31],34.9%
same,"viability, T/C",[32],31.9%
same,"viability, T/C",[33],24.6%
same,"viability, T/C",[34],0.85%
same,"viability, T/C",[35],0.2%
same,"viability, T/C",[36],0.32%
O=c1[nH]cc(F)c(=O)[nH]1 + Cc1[nH]c2ccc(F)cc2c1-c1nc2c3cccnc3c3ncccc3c2[nH]1,pIC50,second compound 0.0316 µM,< 5.00
same,pIC50,second compound 0.1 µM,< 5.00
same,pIC50,second compound 0.316 µM,< 5.00
same,pIC50,second compound 1 µM,< 5.00
same,pIC50,second compound 3.16 µM,> 7.50
same,pIC50,second compound 10 µM,> 7.50
same,"viability, T/C",[1],75.7%
same,"viability, T/C",[2],64.5%
same,"viability, T/C",[3],62.7%
same,"viability, T/C",[4],54.1%
same,"viability, T/C",[5],47.7%
same,"viability, T/C",[6],53%
same,"viability, T/C",[7],80.5%
same,"viability, T/C",[8],70.7%
same,"viability, T/C",[9],60.9%
same,"viability, T/C",[10],54.7%
same,"viability, T/C",[11],50.5%
same,"viability, T/C",[12],53.5%
same,"viability, T/C",[13],73.1%
same,"viability, T/C",[14],65.8%
same,"viability, T/C",[15],59.3%
same,"viability, T/C",[16],52.7%
same,"viability, T/C",[17],58.7%
same,"viability, T/C",[18],52%
same,"viability, T/C",[19],68.6%
same,"viability, T/C",[20],55.4%
same,"viability, T/C",[21],56.6%
same,"viability, T/C",[22],50.2%
same,"viability, T/C",[23],54.3%
same,"viability, T/C",[24],48.8%
same,"viability, T/C",[25],21%
same,"viability, T/C",[26],21.6%
same,"viability, T/C",[27],30.6%
same,"viability, T/C",[28],23.8%
same,"viability, T/C",[29],24.2%
same,"viability, T/C",[30],24.7%
same,"viability, T/C",[31],44.4%
same,"viability, T/C",[32],47.8%
same,"viability, T/C",[33],47.3%
same,"viability, T/C",[34],42%
same,"viability, T/C",[35],52.1%
same,"viability, T/C",[36],38.8%

# From PubChem BioAssay AID2060498 (Molecular Pharmacology Branch, DTP, NCI, 2025)
